Assay results taken from patent US7135467B2, “HIV integrase inhibitors” (priority 2003, dated 2006).

Each molecule was assayed against T1, HIV-integrase (recombinant integrase) (Human immunodeficiency virus type 1 group M subtype B, UniProt P12497) (assay: HIV-Integrase Inhibition Activity (SPA bead strand-transfer assay)). Conditions: recombinant integrase on biotin labeled substrate DNA/SPA beads, P33 labeled target DNA; read-out: Activity (IC50 against HIV-integrase).
T1 construct: Recombinant integrase (0.26 ng) was incubated with the beads
Format: biochemical
Protocol: To evaluate in-vitro activity against HIV-integrase, 5 pmole of biotin labeled substrate DNA was bound to 100 μg of Streptavidin coated PVT SPA beads (Amersham Pharmacia Biotech). Recombinant integrase (0.26 ng) was incubated with the beads for 90 min at 37° C. Unbound enzyme was removed by washing the complex followed by addition of inhibitors and 0.1 fmol of P33 labeled target DNA. The reaction was stopped by adding EDTA to a final concentration of 10 mM. Samples were counted in TopCountNXT (Packard) and the CPM was used as a measure of integration. The reaction condition was as described in A. Engelman and R. Craigie, J. Virol. 69, 5908–5911 (1995). The sequences of substrate and target DNA were described in Nucleic Acid Research 22, 1121–1122 (1994). Activity equal to A refers to a compound having IC50=0.003 to 0.10 μM while B and C denote compounds the following IC50=0.1 to 1.0 μM and IC50≧1.0 μM respectively.

First: Cn1c(N2CCCCS2(=O)=O)nc(C(=O)NCc2ccccc2F)c(O)c1=O [Compound 28, N-[(2-fluorophenyl)methyl]-1,6-dihydro-5-hydroxy-1-methyl-6-oxo-2-(tetrahydro-1,1-dioxido-2H-1,2-thiazin-2-yl)-4-pyrimidinecarboxamide]
Second: COc1ccccc1CNC(=O)c1nc(N2CCCCS2(=O)=O)n(C)c(=O)c1O [Compound 24, 1,6-dihydro-5-hydroxy-N-[(2-methoxyphenyl)methyl]-1-methyl-6-oxo-2-(tetrahydro-1,1-dioxido-2H-1,2-thiazin-2-yl)-4-pyrimidinecarboxamide]
The IC50 of the first is higher: 100 to 1000 nM for the first, 3 to 100 nM for the second.

`Cc1cccc(CNC(=O)c2nc(N3CCCCS3(=O)=O)n(C)c(=O)c2O)c1` [Compound 9, 1,6-dihydro-5-hydroxy-1-methyl-N-[(3-methylphenyl)methyl]-6-oxo-2-(tetrahydro-1,1-dioxido-2H-1,2-thiazin-2-yl)-4-pyrimidinecarboxamide] and `Cc1ccc(CNC(=O)c2nc(N3CCCCS3(=O)=O)n(C)c(=O)c2O)cc1F` [Compound 14, N-[(3-fluoro-4-methylphenyl)methyl]-1,6-dihydro-5-hydroxy-1-methyl-6-oxo-2-(tetrahydro-1,1-dioxido-2H-1,2-thiazin-2-yl)-4-pyrimidinecarboxamide] fall in the same range of IC50: 3 to 100 nM for the first, 3 to 100 nM for the second.

`Cc1cc(CNC(=O)c2nc(N3CCN(c4ccccn4)CC3)n(C)c(=O)c2O)ccc1F` [Compound 76, N-[(4-fluoro-3-methylphenyl)methyl]-1,6-dihydro-5-hydroxy-1-methyl-6-oxo-2-[4-(2-pyridinyl)-1-piperazinyl]-4-pyrimidinecarboxamide] and `Cc1cc(CNC(=O)c2nc(N3CCN(c4ncccn4)CC3)n(C)c(=O)c2O)ccc1F` [Compound 78, N-[(4-fluoro-3-methylphenyl)methyl]-1,6-dihydro-5-hydroxy-1-methyl-6-oxo-2-[4-(2-pyrimidinyl)-1-piperazinyl]-4-pyrimidinecarboxamide] fall in the same range of IC50: 3 to 100 nM for the first, 3 to 100 nM for the second.

`CC(=O)N1CCN(c2nc(C(=O)NCc3ccc(F)cc3)c(O)c(=O)n2C)CC1` [Compound 71, 2-(4-acetyl-1-piperazinyl)-N-[(4-fluorophenyl)methyl]-1,6-dihydro-5-hydroxy-1-methyl-6-oxo-4-pyrimidinecarboxamide] and `Cn1c(N2CCC(O)CC2)nc(C(=O)NCc2ccc(F)cc2)c(O)c1=O` [Compound 65, N-[(4-fluorophenyl)methyl]-1,6-dihydro-5-hydroxy-2-(4-hydroxy-1-piperidinyl)-1-methyl-6-oxo-4-pyrimidinecarboxamide] fall in the same range of IC50: 3 to 100 nM for the first, 3 to 100 nM for the second.

`Cc1cc(CNC(=O)c2nc(N3CCC(O)CC3)n(C)c(=O)c2O)ccc1F` [Compound 66, N-[(4-fluoro-3-methylphenyl)methyl]-1,6-dihydro-5-hydroxy-2-(4-hydroxy-1-piperidinyl)-1-methyl-6-oxo-4-pyrimidinecarboxamide] and `Cc1cc(CNC(=O)c2nc(N3CCCCC3CO)n(C)c(=O)c2O)ccc1F` (centres unmarked) [Compound 97, N-[(4-fluoro-3-methylphenyl)methyl]-1,6-dihydro-5-hydroxy-2-[2-(hydroxymethyl)-1-piperidinyl]-1-methyl-6-oxo-4-pyrimidinecarboxamide] fall in the same range of IC50: 3 to 100 nM for the first, 3 to 100 nM for the second.

`Cn1c(N2CCCCS2(=O)=O)nc(C(=O)NCCc2ccccc2)c(O)c1=O` [Compound 31, 1,6-dihydro-5-hydroxy-1-methyl-6-oxo-N-(2-phenylethyl)-2-(tetrahydro-1,1-dioxido-2H-1,2-thiazin-2-yl)-4-pyrimidinecarboxamide] and `COc1cccc(CCNC(=O)c2nc(N3CCCCS3(=O)=O)n(C)c(=O)c2O)c1` [Compound 39, 1,6-dihydro-5-hydroxy-N-[2-(3-methoxyphenyl)ethyl]-1-methyl-6-oxo-2-(tetrahydro-1,1-dioxido-2H-1,2-thiazin-2-yl)-4-pyrimidinecarboxamide] cannot be ordered by IC50: ≥ 1000 nM for the first, ≥ 1000 nM for the second.

`Cn1c(N2CCCCS2(=O)=O)nc(C(=O)NCc2ccccc2C(F)(F)F)c(O)c1=O` [Compound 46, 1,6-dihydro-5-hydroxy-1-methyl-6-oxo-2-(tetrahydro-1,1-dioxido-2H-1,2-thiazin-2-yl)-N-[[2-(trifluoromethyl)phenyl]methyl]-4-pyrimidinecarboxamide] and `Cn1c(N2CCCCS2(=O)=O)nc(C(=O)NCc2cc(Cl)ccc2Cl)c(O)c1=O` [Compound 42, N-[(2,5-dichlorophenyl)methyl]-1,6-dihydro-5-hydroxy-1-methyl-6-oxo-2-(tetrahydro-1,1-dioxido-2H-1,2-thiazin-2-yl)-4-pyrimidinecarboxamide] fall in the same range of IC50: 100 to 1000 nM for the first, 100 to 1000 nM for the second.

`Cn1c(N2CCC(C(N)=O)CC2)nc(C(=O)NCc2ccc(F)cc2)c(O)c1=O` [Compound 94, 2-[4-(aminocarbonyl)-1-piperidinyl]-N-[(4-fluorophenyl)methyl]-1,6-dihydro-5-hydroxy-1-methyl-6-oxo-4-pyrimidinecarboxamide] and `Cn1c(N2CCC[C@H]2C(N)=O)nc(C(=O)NCc2ccc(F)cc2)c(O)c1=O` [Compound 95, 2-[(2S)-2-(aminocarbonyl)-1-pyrrolidinyl]-N-[(4-fluorophenyl)methyl]-1,6-dihydro-5-hydroxy-1-methyl-6-oxo-4-pyrimidinecarboxamide] fall in the same range of IC50: 3 to 100 nM for the first, 3 to 100 nM for the second.

`CCCN1CCN(c2nc(C(=O)NCc3ccc(F)c(C)c3)c(O)c(=O)n2C)CC1` [Compound 74, N-[(4-fluoro-3-methylphenyl)methyl]-1,6-dihydro-5-hydroxy-1-methyl-6-oxo-2-(4-propyl-1-piperazinyl)-4-pyrimidinecarboxamide] and `CNC(=O)N1CCN(c2nc(C(=O)NCc3ccc(F)c(C)c3)c(O)c(=O)n2C)CC1` [Compound 88, N-[(4-fluoro-3-methylphenyl)methyl]-1,6-dihydro-5-hydroxy-1-methyl-2-[4-[(methylamino)carbonyl]-1-piperazinyl]-6-oxo-4-pyrimidinecarboxamide] fall in the same range of IC50: 3 to 100 nM for the first, 3 to 100 nM for the second.

`Cn1c(N2CCCCS2(=O)=O)nc(C(=O)NCCCc2ccc(F)cc2)c(O)c1=O` [Compound 6, N-[3-(4-fluorophenyl)propyl]-1,6-dihydro-5-hydroxy-1-methyl-6-oxo-2-(tetrahydro-1,1-dioxido-2H-1,2-thiazin-2-yl)-4-pyrimidinecarboxamide] and `Cn1c(N2CCCCS2(=O)=O)nc(C(=O)NCc2ccc(F)c(Cl)c2)c(O)c1=O` [Compound 18, N-[(3-chloro-4-fluorophenyl)methyl]-1,6-dihydro-5-hydroxy-1-methyl-6-oxo-2-(tetrahydro-1,1-dioxido-2H-1,2-thiazin-2-yl)-4-pyrimidinecarboxamide] fall in the same range of IC50: 3 to 100 nM for the first, 3 to 100 nM for the second.

`Cn1c(N2CCCCS2(=O)=O)nc(C(=O)NCc2ccc(Cl)c(Cl)c2)c(O)c1=O` [Compound 2, N-[(3,4-dichlorophenyl)methyl]-1,6-dihydro-5-hydroxy-1-methyl-6-oxo-2-(tetrahydro-1,1-dioxido-2H-1,2-thiazin-2-yl)-4-pyrimidinecarboxamide] and `Cc1cc(CNC(=O)c2nc(N3CCCCS3(=O)=O)n(C)c(=O)c2O)ccc1F` [Compound 13, N-[(4-fluoro-3-methylphenyl)methyl]-1,6-dihydro-5-hydroxy-1-methyl-6-oxo-2-(tetrahydro-1,1-dioxido-2H-1,2-thiazin-2-yl)-4-pyrimidinecarboxamide] fall in the same range of IC50: 3 to 100 nM for the first, 3 to 100 nM for the second.

`Cc1cc(CNC(=O)c2nc(N3CCN(c4ccccc4)CC3)n(C)c(=O)c2O)ccc1F` [Compound 80, N-[(4-fluoro-3-methylphenyl)methyl]-1,6-dihydro-5-hydroxy-1-methyl-6-oxo-2-(4-phenyl-1-piperazinyl)-4-pyrimidinecarboxamide] and `Cc1cc(CNC(=O)c2nc(-n3ncccc3=O)n(C)c(=O)c2O)ccc1F` [Compound 101, N-[(4-fluoro-3-methylphenyl)methyl]-1,6-dihydro-5-hydroxy-1-methyl-6-oxo-2-(6-oxo-1(6H)-pyridazinyl)-4-pyrimidinecarboxamide] fall in the same range of IC50: 3 to 100 nM for the first, 3 to 100 nM for the second.

`Cn1c(N2CCCCC2CCO)nc(C(=O)NCc2ccc(F)cc2)c(O)c1=O` (centres unmarked) [Compound 98, N-[(4-fluorophenyl)methyl]-1,6-dihydro-5-hydroxy-2-[2-(2-hydroxyethyl)-1-piperidinyl]-1-methyl-6-oxo-4-pyrimidinecarboxamide] and `Cc1cc(CNC(=O)c2nc(N3CCCCC3CCO)n(C)c(=O)c2O)ccc1F` (centres unmarked) [Compound 99, N-[(4-fluoro-3-methylphenyl)methyl]-1,6-dihydro-5-hydroxy-2-[2-(2-hydroxyethyl)-1-piperidinyl]-1-methyl-6-oxo-4-pyrimidinecarboxamide] fall in the same range of IC50: 3 to 100 nM for the first, 3 to 100 nM for the second.

`Cn1c(N2CCCCS2(=O)=O)nc(C(=O)NCc2cc(C(F)(F)F)cc(C(F)(F)F)c2)c(O)c1=O` [Compound 44, N-[[3,5-bis(trifluoromethyl)phenyl]methyl]-1,6-dihydro-5-hydroxy-1-methyl-6-oxo-2-(tetrahydro-1,1-dioxido-2H-1,2-thiazin-2-yl)-4-pyrimidinecarboxamide] and `Cn1c(N2CCCCS2(=O)=O)nc(C(=O)NCc2cc(F)cc(F)c2)c(O)c1=O` [Compound 47, N-[(3,5-difluorophenyl)methyl]-1,6-dihydro-5-hydroxy-1-methyl-6-oxo-2-(tetrahydro-1,1-dioxido-2H-1,2-thiazin-2-yl)-4-pyrimidinecarboxamide] cannot be ordered by IC50: ≥ 1000 nM for the first, 100 to 1000 nM for the second.

In the case of `COc1cc(CNC(=O)c2nc(N3CCCCS3(=O)=O)n(C)c(=O)c2O)cc(OC)c1OC` [Compound 41, 1,6-dihydro-5-hydroxy-1-methyl-6-oxo-2-(tetrahydro-1,1-dioxido-2H-1,2-thiazin-2-yl)-N-[(3,4,5-trimethoxyphenyl)methyl]-4-pyrimidinecarboxamide], the IC50 is reported as ≥ 1000 nM.
